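Five concentrations, 48 hours, 96-well plates. GI50 is the concentration that inhibits growth by half. At the TGI there is no net growth.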
How the values were obtained:
Assay in all cases: NCI-60 cell line screen, 48 h
786-0 renal = test system: 786-0 renal
A498 renal = test system: A498 renal
A549 NSCLC = test system: A549 NSCLC
ACHN renal = test system: ACHN renal
BT-549 breast = test system: BT-549 breast
CAKI-1 renal = test system: CAKI-1 renal
CCRF-CEM leukemia = test system: CCRF-CEM leukemia
COLO 205 colon = test system: COLO 205 colon
DU-145 prostate = test system: DU-145 prostate
EKVX NSCLC = test system: EKVX NSCLC
HCC-2998 colon = test system: HCC-2998 colon
HCT-116 colon = test system: HCT-116 colon
HCT-15 colon = test system: HCT-15 colon
HL-60(TB) leukemia = test system: HL-60(TB) leukemia
HOP-62 NSCLC = test system: HOP-62 NSCLC
HOP-92 NSCLC = test system: HOP-92 NSCLC
HS 578T breast = test system: HS 578T breast
HT29 colon = test system: HT29 colon
IGROV1 ovarian = test system: IGROV1 ovarian
K-562 leukemia = test system: K-562 leukemia
KM12 colon = test system: KM12 colon
LOX IMVI melanoma = test system: LOX IMVI melanoma
M14 melanoma = test system: M14 melanoma
MALME-3M melanoma = test system: MALME-3M melanoma
MCF7 breast = test system: MCF7 breast
MDA-MB-231 breast = test system: MDA-MB-231 breast
MDA-MB-435 = test system: MDA-MB-435
MOLT-4 leukemia = test system: MOLT-4 leukemia
NCI-H226 lung = test system: NCI-H226 lung
NCI-H23 lung = test system: NCI-H23 lung
NCI-H460 lung = test system: NCI-H460 lung
NCI-H522 lung = test system: NCI-H522 lung
NCI/ADR-RES ovarian = test system: NCI/ADR-RES ovarian
OVCAR-3 ovarian = test system: OVCAR-3 ovarian
OVCAR-4 ovarian = test system: OVCAR-4 ovarian
OVCAR-5 ovarian = test system: OVCAR-5 ovarian
OVCAR-8 ovarian = test system: OVCAR-8 ovarian
PC-3 prostate = test system: PC-3 prostate
RPMI-8226 leukemia = test system: RPMI-8226 leukemia
RXF 393 renal = test system: RXF 393 renal
SF-268 CNS = test system: SF-268 CNS
SF-295 CNS = test system: SF-295 CNS
SF-539 CNS = test system: SF-539 CNS
SK-MEL-2 melanoma = test system: SK-MEL-2 melanoma
SK-MEL-28 melanoma = test system: SK-MEL-28 melanoma
SK-MEL-5 melanoma = test system: SK-MEL-5 melanoma
SK-OV-3 ovarian = test system: SK-OV-3 ovarian
SN12C renal = test system: SN12C renal
SNB-19 CNS = test system: SNB-19 CNS
SNB-75 CNS = test system: SNB-75 CNS
SR leukemia = test system: SR leukemia
SW-620 colon = test system: SW-620 colon
T-47D breast = test system: T-47D breast
TK-10 renal = test system: TK-10 renal
U251 CNS = test system: U251 CNS
UACC-257 melanoma = test system: UACC-257 melanoma
UACC-62 melanoma = test system: UACC-62 melanoma
UO-31 renal = test system: UO-31 renal

In the case of `COc1ccc([C@H]2[C@H](O)C(=O)N2c2cc(OC)c(OC)c(OC)c2)cc1F`, the GI50 (786-0 renal) is reported as less than 10 nM, the TGI (786-0 renal) is reported as greater than 100 µM and the GI50 (A498 renal) is reported as greater than 100 µM. It also gave a TGI (A498 renal) greater than 100 µM, a GI50 (A549 NSCLC) of less than 10 nM and a TGI (A549 NSCLC) greater than 100 µM. For the same compound, the GI50 (ACHN renal) was less than 10 nM, the TGI (ACHN renal) was greater than 100 µM and the GI50 (BT-549 breast) was less than 10 nM. It also gave a GI50 (CAKI-1 renal) of less than 10 nM, a TGI (CAKI-1 renal) greater than 100 µM and a GI50 (CCRF-CEM leukemia) of less than 10 nM. It also gave a TGI (CCRF-CEM leukemia) greater than 100 µM, a GI50 (COLO 205 colon) of less than 10 nM and a TGI (COLO 205 colon) of less than 10 nM. For the same compound, the GI50 (DU-145 prostate) was less than 10 nM, the TGI (DU-145 prostate) was greater than 100 µM and the TGI (EKVX NSCLC) was greater than 100 µM. For the same compound, the GI50 (HCC-2998 colon) was less than 10 nM, the GI50 (HCT-116 colon) was less than 10 nM and the TGI (HCT-116 colon) was greater than 100 µM. It also gave a GI50 (HCT-15 colon) of less than 10 nM, a TGI (HCT-15 colon) greater than 100 µM and a GI50 (HL-60(TB) leukemia) of less than 10 nM. The GI50 (HOP-62 NSCLC) was less than 10 nM, the TGI (HOP-62 NSCLC) was greater than 100 µM and the TGI (HOP-92 NSCLC) was greater than 100 µM. It also gave a GI50 (HS 578T breast) of less than 10 nM, a TGI (HS 578T breast) greater than 100 µM and a GI50 (HT29 colon) of less than 10 nM. The TGI (HT29 colon) was less than 10 nM, the GI50 (IGROV1 ovarian) was less than 10 nM and the TGI (IGROV1 ovarian) was greater than 100 µM. For the same compound, the GI50 (K-562 leukemia) was less than 10 nM, the TGI (K-562 leukemia) was greater than 100 µM and the GI50 (KM12 colon) was less than 10 nM. It also gave a TGI (KM12 colon) greater than 100 µM, a GI50 (LOX IMVI melanoma) of less than 10 nM and a TGI (LOX IMVI melanoma) greater than 100 µM. It also gave a GI50 (M14 melanoma) of less than 10 nM, a TGI (M14 melanoma) greater than 100 µM and a GI50 (MALME-3M melanoma) of less than 10 nM. It also gave a TGI (MALME-3M melanoma) greater than 100 µM, a GI50 (MCF7 breast) of less than 10 nM and a TGI (MCF7 breast) greater than 100 µM. The GI50 (MDA-MB-231 breast) was less than 10 nM, the TGI (MDA-MB-231 breast) was greater than 100 µM and the GI50 (MDA-MB-435) was less than 10 nM. The TGI (MDA-MB-435) was less than 10 nM, the GI50 (MOLT-4 leukemia) was less than 10 nM and the TGI (MOLT-4 leukemia) was greater than 100 µM. For the same compound, the GI50 (NCI-H226 lung) was less than 10 nM, the GI50 (NCI-H23 lung) was less than 10 nM and the TGI (NCI-H23 lung) was greater than 100 µM. It also gave a GI50 (NCI-H460 lung) of less than 10 nM, a TGI (NCI-H460 lung) greater than 39.1 µM and a GI50 (NCI-H522 lung) of less than 10 nM. For the same compound, the TGI (NCI-H522 lung) was less than 10 nM, the GI50 (NCI/ADR-RES ovarian) was less than 10 nM and the GI50 (OVCAR-3 ovarian) was less than 10 nM. The TGI (OVCAR-3 ovarian) was greater than 100 µM, the GI50 (OVCAR-4 ovarian) was 546 nM and the TGI (OVCAR-4 ovarian) was greater than 100 µM. It also gave a GI50 (OVCAR-5 ovarian) of less than 10 nM, a TGI (OVCAR-5 ovarian) greater than 100 µM and a GI50 (OVCAR-8 ovarian) of less than 10 nM. It also gave a GI50 (PC-3 prostate) of less than 10 nM, a TGI (PC-3 prostate) greater than 100 µM and a GI50 (RPMI-8226 leukemia) of less than 10 nM. The TGI (RPMI-8226 leukemia) was greater than 34.5 µM, the GI50 (RXF 393 renal) was less than 10 nM and the GI50 (SF-268 CNS) was less than 10 nM. For the same compound, the TGI (SF-268 CNS) was greater than 100 µM, the GI50 (SF-295 CNS) was less than 10 nM and the TGI (SF-295 CNS) was greater than 100 µM. The GI50 (SF-539 CNS) was less than 10 nM, the TGI (SF-539 CNS) was less than 10 nM and the GI50 (SK-MEL-2 melanoma) was less than 10 nM. It also gave a TGI (SK-MEL-2 melanoma) greater than 94.8 µM, a GI50 (SK-MEL-28 melanoma) of less than 10 nM and a TGI (SK-MEL-28 melanoma) greater than 100 µM. It also gave a GI50 (SK-MEL-5 melanoma) of less than 10 nM, a TGI (SK-MEL-5 melanoma) of 12 nM and a GI50 (SK-OV-3 ovarian) of less than 10 nM. For the same compound, the TGI (SK-OV-3 ovarian) was greater than 100 µM, the GI50 (SN12C renal) was less than 10 nM and the TGI (SN12C renal) was greater than 100 µM. For the same compound, the GI50 (SNB-19 CNS) was less than 10 nM, the TGI (SNB-19 CNS) was greater than 100 µM and the GI50 (SNB-75 CNS) was less than 10 nM. For the same compound, the GI50 (SR leukemia) was less than 10 nM, the TGI (SR leukemia) was greater than 100 µM and the GI50 (SW-620 colon) was less than 10 nM. The TGI (SW-620 colon) was greater than 100 µM, the GI50 (T-47D breast) was greater than 100 µM and the TGI (T-47D breast) was greater than 100 µM. The GI50 (TK-10 renal) was greater than 100 µM, the TGI (TK-10 renal) was greater than 100 µM and the GI50 (U251 CNS) was less than 10 nM. The TGI (U251 CNS) was greater than 100 µM, the TGI (UACC-257 melanoma) was greater than 100 µM and the GI50 (UACC-62 melanoma) was less than 10 nM. It also gave a TGI (UACC-62 melanoma) greater than 100 µM, a GI50 (UO-31 renal) of less than 10 nM and a TGI (UO-31 renal) greater than 100 µM.

Source: PubChem BioAssay (NCI)
